Broadly, the IC50 is the concentration at which inhibition is half-maximal.

Format in all cases: biochemical
Experiment [1] has as its target rat sucrase (partially purified alpha-glucosidase from intestinal rat powder) (Rattus norvegicus, UniProt P23739). The experiment can be described thus: Intestinal alpha-glucosidase assay, sucrose substrate (Glucose GO Kit). An outline of the steps: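 Partially purified alpha-glucosidase from rat intestinal powder was preincubated 60 min at 37 °C with serial compound dilutions, then given maltose or sucrose and incubated 30 min at 37 °C.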

Experiment [2] concerns the target T1, recombinant alpha-glucosidase II (murine full-length glucosidase II, alpha and beta subunits, Glu 2) (Mus musculus, UniProt Q8BHN3).
T1 construct: made in house; host or cells: HEK-293T cells transduced with BacMam viruses (75% alpha, 25% beta); protein harvested from culture supernatant
As to the kind of experiment: Alpha-glucosidase II assay (4-methylumbelliferyl-alpha-D-pyranoside substrate, fluorescence). To be noted: Glucosidase 2; read-out: Glu2 IC50.

For experiment [3], the target named is T2, recombinant human GBA (beta-glucocerebrosidase) (Homo sapiens, UniProt P04062).
T2 sequence (P04062 40-536): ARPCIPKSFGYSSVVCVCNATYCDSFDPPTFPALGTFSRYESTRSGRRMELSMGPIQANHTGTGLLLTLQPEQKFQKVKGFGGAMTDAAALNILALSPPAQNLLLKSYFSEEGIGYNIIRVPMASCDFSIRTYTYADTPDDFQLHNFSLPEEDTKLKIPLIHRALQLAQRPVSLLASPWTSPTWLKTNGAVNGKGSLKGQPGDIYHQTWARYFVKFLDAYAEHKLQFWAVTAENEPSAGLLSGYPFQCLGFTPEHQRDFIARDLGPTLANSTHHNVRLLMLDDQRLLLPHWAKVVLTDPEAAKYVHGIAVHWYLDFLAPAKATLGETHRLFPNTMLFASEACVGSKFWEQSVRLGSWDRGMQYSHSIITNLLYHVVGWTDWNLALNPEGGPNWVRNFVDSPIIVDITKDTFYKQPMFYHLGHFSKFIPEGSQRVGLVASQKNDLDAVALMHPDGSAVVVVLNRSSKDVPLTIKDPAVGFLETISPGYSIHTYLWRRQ
As to the kind of experiment: Beta-glucocerebrosidase (GBA, glucosylceramidase) assay (4-methylumbelliferyl-beta-D-pyranoside substrate, fluorescence). In a few lines:
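IC50 by four-parameter fit of percent inhibition, with product fluorescence (365/440 nm) read after a glycine/NaOH pH 10 stop. Compound and commercial recombinant human enzyme were incubated 60 min at 37 °C before a further 60 min at 37 °C with 4-methylumbelliferyl-beta-D-pyranoside substrate.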

rat sucrase (partially purified alpha-glucosidase from intestinal rat powder), sequence (P23739 whole entry): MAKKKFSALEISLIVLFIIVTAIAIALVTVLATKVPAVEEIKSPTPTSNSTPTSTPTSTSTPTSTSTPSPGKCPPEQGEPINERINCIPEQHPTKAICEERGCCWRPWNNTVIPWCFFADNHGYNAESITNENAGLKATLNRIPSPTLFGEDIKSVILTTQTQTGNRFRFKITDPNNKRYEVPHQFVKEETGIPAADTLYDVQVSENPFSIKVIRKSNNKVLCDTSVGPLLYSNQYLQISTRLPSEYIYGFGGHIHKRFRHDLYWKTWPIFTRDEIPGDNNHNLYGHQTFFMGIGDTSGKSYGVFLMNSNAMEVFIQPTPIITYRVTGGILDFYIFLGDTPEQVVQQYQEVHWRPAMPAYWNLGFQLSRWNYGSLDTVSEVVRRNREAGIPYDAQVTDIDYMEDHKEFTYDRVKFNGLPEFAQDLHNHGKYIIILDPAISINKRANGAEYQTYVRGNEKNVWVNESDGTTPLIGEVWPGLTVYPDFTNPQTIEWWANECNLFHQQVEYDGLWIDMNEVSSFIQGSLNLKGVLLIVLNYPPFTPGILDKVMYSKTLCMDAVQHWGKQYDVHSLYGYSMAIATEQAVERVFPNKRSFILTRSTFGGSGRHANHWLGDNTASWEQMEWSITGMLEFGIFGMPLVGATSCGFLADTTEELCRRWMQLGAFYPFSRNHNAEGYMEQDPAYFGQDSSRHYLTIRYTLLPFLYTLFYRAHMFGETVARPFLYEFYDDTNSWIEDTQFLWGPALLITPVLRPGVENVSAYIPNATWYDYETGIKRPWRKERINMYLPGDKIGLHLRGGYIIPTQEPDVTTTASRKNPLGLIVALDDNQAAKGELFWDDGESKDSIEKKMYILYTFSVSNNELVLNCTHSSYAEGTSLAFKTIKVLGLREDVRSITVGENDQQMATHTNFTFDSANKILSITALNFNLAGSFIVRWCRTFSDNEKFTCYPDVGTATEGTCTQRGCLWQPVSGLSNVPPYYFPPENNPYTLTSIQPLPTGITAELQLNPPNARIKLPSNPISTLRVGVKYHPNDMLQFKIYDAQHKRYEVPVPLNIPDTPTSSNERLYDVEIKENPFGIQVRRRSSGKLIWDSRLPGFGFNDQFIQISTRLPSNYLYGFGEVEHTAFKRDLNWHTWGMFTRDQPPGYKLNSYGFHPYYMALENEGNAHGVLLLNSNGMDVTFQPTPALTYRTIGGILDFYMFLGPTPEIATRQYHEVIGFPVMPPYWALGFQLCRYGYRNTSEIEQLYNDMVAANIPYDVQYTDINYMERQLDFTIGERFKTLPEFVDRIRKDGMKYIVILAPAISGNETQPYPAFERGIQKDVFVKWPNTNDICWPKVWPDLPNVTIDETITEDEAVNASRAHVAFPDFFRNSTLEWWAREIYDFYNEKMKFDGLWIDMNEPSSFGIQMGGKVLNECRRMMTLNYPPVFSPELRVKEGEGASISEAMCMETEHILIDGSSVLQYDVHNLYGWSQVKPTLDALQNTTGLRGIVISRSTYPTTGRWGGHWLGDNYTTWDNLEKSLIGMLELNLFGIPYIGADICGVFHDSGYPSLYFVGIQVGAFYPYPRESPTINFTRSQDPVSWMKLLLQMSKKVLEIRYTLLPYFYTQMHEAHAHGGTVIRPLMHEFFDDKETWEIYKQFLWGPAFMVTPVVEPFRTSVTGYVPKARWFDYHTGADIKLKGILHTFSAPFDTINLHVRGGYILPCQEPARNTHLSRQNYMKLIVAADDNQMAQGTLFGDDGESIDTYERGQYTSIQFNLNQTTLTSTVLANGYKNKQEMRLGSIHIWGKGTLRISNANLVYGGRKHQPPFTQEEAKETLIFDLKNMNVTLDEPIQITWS
T1 sequence (O08795 15-521): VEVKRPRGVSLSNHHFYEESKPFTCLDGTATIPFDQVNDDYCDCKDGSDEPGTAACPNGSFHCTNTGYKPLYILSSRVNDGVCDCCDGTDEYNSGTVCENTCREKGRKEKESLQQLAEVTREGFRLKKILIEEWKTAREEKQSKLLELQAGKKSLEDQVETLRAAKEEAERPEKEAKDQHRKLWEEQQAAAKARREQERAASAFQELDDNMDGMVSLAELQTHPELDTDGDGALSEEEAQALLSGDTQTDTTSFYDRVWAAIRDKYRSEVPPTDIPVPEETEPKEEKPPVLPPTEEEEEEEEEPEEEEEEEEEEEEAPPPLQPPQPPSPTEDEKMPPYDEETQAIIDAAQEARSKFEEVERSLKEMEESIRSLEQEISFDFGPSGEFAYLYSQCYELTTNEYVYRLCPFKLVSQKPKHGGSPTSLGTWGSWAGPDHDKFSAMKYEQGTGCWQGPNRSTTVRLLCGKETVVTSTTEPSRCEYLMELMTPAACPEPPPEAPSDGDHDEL
T1 sequence (Q8BHN3 33-944): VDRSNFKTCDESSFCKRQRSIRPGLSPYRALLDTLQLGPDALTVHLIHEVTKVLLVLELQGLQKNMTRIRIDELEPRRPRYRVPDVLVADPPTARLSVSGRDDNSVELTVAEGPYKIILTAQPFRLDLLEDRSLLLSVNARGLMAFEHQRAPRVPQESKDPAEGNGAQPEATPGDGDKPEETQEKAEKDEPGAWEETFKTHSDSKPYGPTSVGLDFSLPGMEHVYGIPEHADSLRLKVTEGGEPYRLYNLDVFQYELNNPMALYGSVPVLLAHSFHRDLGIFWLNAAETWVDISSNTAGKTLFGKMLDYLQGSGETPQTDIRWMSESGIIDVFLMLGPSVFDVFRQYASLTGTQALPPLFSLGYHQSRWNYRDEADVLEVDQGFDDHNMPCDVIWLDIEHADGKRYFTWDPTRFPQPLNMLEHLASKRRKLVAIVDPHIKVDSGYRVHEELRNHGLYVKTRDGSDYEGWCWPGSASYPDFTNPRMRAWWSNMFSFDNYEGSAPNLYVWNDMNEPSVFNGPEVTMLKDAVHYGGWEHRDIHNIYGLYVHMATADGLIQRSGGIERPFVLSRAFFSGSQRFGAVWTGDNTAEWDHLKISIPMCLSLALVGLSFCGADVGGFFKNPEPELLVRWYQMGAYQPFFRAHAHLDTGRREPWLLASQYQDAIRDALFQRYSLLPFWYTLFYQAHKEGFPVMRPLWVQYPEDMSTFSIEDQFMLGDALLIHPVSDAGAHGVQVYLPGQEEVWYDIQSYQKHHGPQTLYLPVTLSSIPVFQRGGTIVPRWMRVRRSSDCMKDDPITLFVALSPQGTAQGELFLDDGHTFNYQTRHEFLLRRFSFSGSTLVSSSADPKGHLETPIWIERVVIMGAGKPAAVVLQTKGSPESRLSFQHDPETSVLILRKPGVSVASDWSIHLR

`[N-]=[N+]=Nc1ccc(NCCN2CC(OCCN3C[C@H](O)[C@@H](O)[C@H](O)[C@H]3CO)C2)c([N+](=O)[O-])c1` [Compound 1271, (2R,3R,4R,5S)-1-{2-[(1-{2-[(4-azido-2-nitrophenyl)amino]ethyl}azetidin-3-yl)oxy]ethyl}-2-(hydroxymethyl)piperidine-3,4,5-triol]: the IC50 in experiment [1] was determined as 266 nM; in experiment [2], 539 nM; in experiment [3] it was 1900 nM.

For `[N-]=[N+]=Nc1ccc(NCCn2cc(CCN3C[C@H](O)[C@@H](O)[C@H](O)[C@H]3CO)nn2)c([N+](=O)[O-])c1` [Compound 1272, (2R,3R,4R,5S)-1-[2-(1-{2-[(4-azido-2-nitrophenyl)amino]ethyl}-1H-1,2,3-triazol-4-yl)ethyl]-2-(hydroxymethyl)piperidine-3,4,5-triol], the figures for the IC50 in experiment [1], in experiment [2] and in experiment [3] were 1880 nM, 39 nM and 4100 nM, respectively.

On to `[N-]=[N+]=Nc1ccc(NCCN2CCN(CCN3C[C@H](O)[C@@H](O)[C@H](O)[C@H]3CO)CC2)c([N+](=O)[O-])c1` [Compound 1273, (2R,3R,4R,5S)-1-[2-(4-{2-[(4-azido-2-nitrophenyl)amino]ethyl}piperazin-1-yl)ethyl]-2-(hydroxymethyl)piperidine-3,4,5-triol], for which the figures for the IC50 in experiment [1], in experiment [2] and in experiment [3] were 21600 nM, 548 nM and 2980 nM, respectively.

As to `[N-]=[N+]=Nc1ccc(NCCS(=O)(=O)CCCN2C[C@H](O)[C@@H](O)[C@H](O)[C@H]2CO)c([N+](=O)[O-])c1` [Compound 1274, (2R,3R,4R,5S)-1-(3-{2-[(4-azido-2-nitrophenyl)amino]ethane-sulfonyl}propyl)-2-(hydroxymethyl)piperidine-3,4,5-triol], the figures for the IC50 in experiment [1], in experiment [2] and in experiment [3] were 738 nM, 48 nM and 2990 nM, respectively.

As to `[N-]=[N+]=Nc1ccc(NCCNS(=O)(=O)NCCN2C[C@H](O)[C@@H](O)[C@H](O)[C@H]2CO)c([N+](=O)[O-])c1` [Compound 1275, (2R,3R,4R,5S)-1-{2-[({2-[(4-azido-2-nitrophenyl)amino]ethyl}sulfamoyl)amino]ethyl}-2-(hydroxymethyl)piperidine-3,4,5-triol], the IC50 stood at 413 nM in experiment [1], 366 nM in experiment [2] and 2170 nM in experiment [3].

For the compound `[N-]=[N+]=Nc1ccc(NCCNC(=O)NCCN2C[C@H](O)[C@@H](O)[C@H](O)[C@H]2CO)c([N+](=O)[O-])c1` [Compound 1276, 1-{2-[(4-azido-2-nitrophenyl)amino]ethyl}-3-{2-[(2R,3R,4R,5S)-3,4,5-trihydroxy-2-(hydroxymethyl)piperidin-1-yl]ethyl}urea], the IC50 came to 316 nM in experiment [1], 39 nM in experiment [2] and 62 nM in experiment [3].

For the compound `Nc1ccc(NCCCCCCCCN2C[C@H](O)[C@@H](O)[C@H](O)[C@H]2CO)c([N+](=O)[O-])c1Cl` [Compound 1277, (2R,3R,4R,5S)-1-{8-[(4-amino-3-chloro-2-nitrophenyl)amino]octyl} 2-(hydroxymethyl)piperidine-3,4,5-triol], the figures for the IC50 in experiment [1], in experiment [2] and in experiment [3] were 133 nM, under 1 nM and under 10 nM, respectively.

`CC#Cc1ccc(NCCCCCCN2C[C@H](O)[C@@H](O)[C@H](O)[C@H]2CO)c([N+](=O)[O-])c1` [Compound 1290, (2R,3R,4R,5S)-2-(hydroxymethyl)-1-(6-{[2-nitro-4-(prop-1-yn-1-yl)phenyl]amino}hexyl)piperidine-3,4,5-triol]: the IC50 in experiment [1] is under 10 nM; in experiment [2], 1.2 nM; in experiment [3] it was 175 nM.

As to `[N-]=[N+]=Nc1ccc(NCCCCCCN2C[C@H](O)[C@@H](O)[C@H](O)[C@H]2CO)c(C(N)=O)c1` [Compound 1296, 5-azido-2-({6-[(2R,3R,4R,5S)-3,4,5-trihydroxy-2-(hydroxymethyl)piperidin-1-yl]hexyl}amino)benzamide], the IC50 in experiment [1] came out at 494 nM; in experiment [2] it was 29 nM; in experiment [3] it was 3260 nM.

`[N-]=[N+]=Nc1ccc(NCCCCCCN2C[C@H](O)[C@@H](O)[C@H](O)[C@H]2CO)c(C(=O)O)c1` [Compound 1297, 5-azido-2-({6-[(2R,3R,4R,5S)-3,4,5-trihydroxy-2-(hydroxymethyl)piperidin-1-yl]hexyl}amino)benzoic acid]: the IC50 in experiment [1] is 800 nM; in experiment [2], 97 nM; in experiment [3], 3520 nM.

With `N#CCc1ccc(NCCCCCCN2C[C@H](O)[C@@H](O)[C@H](O)[C@H]2CO)c([N+](=O)[O-])c1` [Compound 1299, 2-[3-nitro-4-({6-[(2R,3R,4R,5S)-3,4,5-trihydroxy-2-(hydroxymethyl)piperidin-1-yl]hexyl}amino)phenyl]acetonitrile], the results for the IC50 in experiment [1], in experiment [2] and in experiment [3] were 37 nM, 17 nM and 3390 nM, respectively.

`N#Cc1ccc(NCCCCCCN2C[C@H](O)[C@@H](O)[C@H](O)[C@H]2CO)c([N+](=O)[O-])c1` [Compound 1304, 3-nitro-4-({6-[(2R,3R,4R,5S)-3,4,5-trihydroxy-2-(hydroxymethyl)piperidin-1-yl]hexyl}amino)benzonitrile]: the results for the IC50 in experiment [1], in experiment [2] and in experiment [3] were 60 nM, 22 nM and 43 nM, respectively.

As to `COc1ccc(-c2ccc(CCCN3C[C@H](O)[C@@H](O)[C@H](O)[C@H]3CO)cc2)cc1` [Compound 1305, (2R,3R,4R,5S)-2-(hydroxymethyl)-1-(3-{4′-methoxy-[1,1′-biphenyl]-4-yl}propyl)piperidine-3,4,5-triol], the IC50 was 1010 nM in experiment [1], under 1 nM in experiment [2] and 7860 nM in experiment [3].

On to `COc1ccc(-c2ccc(CN3C[C@H](O)[C@@H](O)[C@H](O)[C@H]3CO)cc2)cc1` [Compound 1306, (2R,3R,4R,5S)-2-(hydroxymethyl)-1-({4′-methoxy-[1,1′-biphenyl]-4-yl}methyl)piperidine-3,4,5-triol], for which the half-inhibitory concentration (IC50) was under 10 nM in experiment [1], 44000 nM in experiment [2] and over 100000 nM in experiment [3].

As for `COCCc1ccc(CCCN2C[C@H](O)[C@@H](O)[C@H](O)[C@H]2CO)cc1` [Compound 1308, (2R,3R,4R,5S)-2-(hydroxymethyl)-1-{3-[4-(2-methoxyethyl)phenyl]propyl}piperidine-3,4,5-triol], the IC50 in experiment [1] is 331 nM; in experiment [2], 125 nM; in experiment [3] it was 50900 nM.

With `COc1ccc(CCCCCCCN2C[C@H](O)[C@@H](O)[C@H](O)[C@H]2CO)cc1` [Compound 1309, (2R,3R,4R,5S)-2-(hydroxymethyl)-1-[7-(4-methoxyphenyl)heptyl]piperidine-3,4,5-triol], the IC50 in experiment [1] is 155 nM; in experiment [2], 37 nM; in experiment [3] it was 2340 nM.

With `COc1ccc(CCCCCN2C[C@H](O)[C@@H](O)[C@H](O)[C@H]2CO)cc1` [Compound 1310, (2R,3R,4R,5S)-2-(hydroxymethyl)-1-[5-(4-methoxyphenyl)pentyl]piperidine-3,4,5-triol], the IC50 in experiment [1] worked out at 371 nM; in experiment [2] it was 78 nM; in experiment [3], 16900 nM.

As for `OC[C@@H]1[C@@H](O)[C@H](O)[C@@H](O)CN1CCCCCCCCC1CNCCO1` (stereo partly drawn) [Compound 1311, (2R,3R,4R,5S)-2-(hydroxymethyl)-1-[8-(morpholin-2-yl)octyl]piperidine-3,4,5-triol], the figures for the IC50 in experiment [1], in experiment [2] and in experiment [3] were 1010 nM, 197 nM and 26200 nM, respectively.

Turning to `Cc1cc(NCc2ccc(CN3C[C@H](O)[C@@H](O)[C@H](O)[C@H]3CO)cc2)cc(-c2ncco2)c1` [Compound 1315, (2R,3R,4R,5S)-2-(hydroxymethyl)-1-{[4-({[3-methyl-5-(1,3-oxazol-2-yl)phenyl]amino}methyl)phenyl]methyl}piperidine-3,4,5-triol], the IC50 was 44 nM in experiment [1], 907 nM in experiment [2] and over 100000 nM in experiment [3].

Turning to `Cc1cc(NCc2ccc(CN3C[C@H](O)[C@@H](O)[C@H](O)[C@H]3CO)cc2)cc(-n2nccn2)c1` [Compound 1316, (2R,3R,4R,5S)-2-(hydroxymethyl)-1-{[4-({[3-methyl-5-(2H-1,2,3-triazol-2-yl)phenyl]amino}methyl)phenyl]methyl}piperidine-3,4,5-triol], the IC50 in experiment [1] is 14 nM; in experiment [2], 194 nM; in experiment [3], over 100000 nM.

Take `Cc1cc(NCc2ccc(CN3C[C@H](O)[C@@H](O)[C@H](O)[C@H]3CO)cc2)cc(-c2ccco2)c1` [Compound 1317, (2R,3R,4R,5S)-1-{[4-({[3-(furan-2-yl)-5-methylphenyl]amino}methyl)phenyl]methyl}-2-(hydroxymethyl)piperidine-3,4,5-triol]: the IC50 in experiment [1] is under 1 nM; in experiment [2] it was 1200 nM; in experiment [3], 45100 nM.

Source of the values: patent US20250197372A1 (priority 2020, published 2025).
